Read-outs that look alike come from different tables or passages of the source.

Assay [1] relates to healthy subjects. Particulars: single ascending dose study, cited from earlier work.
Assay [2] has as its system treatment naive type II diabetes mellitus patients. In words: 12-week study of weight loss and glucosuria in patients with type II diabetes. Format: in vivo, human. Particulars: for Mean reduction in BMI: absolute change. The method, then: Treatment naive type II diabetes mellitus patients, n=389, with inadequate blood glycemic control and low mean glucosuria at baseline were given once-daily oral treatments with dapagliflozin propylene glycol hydrate (2.5, 5, 10, 20, or 50 mgs), metformin XR® (750 mg titrated to 1500 mgs), or placebo over 12-weeks.

In assay [3] the test system is subjects with type 2 diabetes. As to conditions: 14-day multiple dose. The protocol: (§1) Patients with type 2 diabetes were treated with placebo, 5 mg dapagliflozin propylene glycol hydrate, 25 mg dapagliflozin propylene glycol hydrate, or 100 mg dapagliflozin propylene glycol hydrate.
Assay [4] deals with healthy subjects. Particulars: single ascending dose study. The protocol:
as §1

In assay [5] the test system is diet-induced obese (DIO) rats. Particulars: oral 1, 5 or 10 mg/kg, urine volume x glucose concentration.
Procedure: Obesity was induced in male Sprague-Dawley rats (mean baseline weight=220 g) via ad libitum access to 2 diets: normal diet (Harlan Teklad rat chow; 3.5 kcal/gm, 5% vegetable fat) and high-sucrose/high-fat diet (Research Diets D12327; 4.6 kcal/gm, 40% sucrose and 40% vegetable fat).
Urine volume and glucose concentration were used to determine total urine glucose loss over 24 hours post dose.
Total glucose lost was calculated as volume of urine x glucose concentration.
The subject of assay [6] is diet-induced obese (DIO) rats.
Source text: Obesity was induced in male Sprague-Dawley rats (mean baseline weight=220 g) via ad libitum access to 2 diets: normal diet (Harlan Teklad rat chow; 3.5 kcal/gm, 5% vegetable fat) and high-sucrose/high-fat diet (Research Diets D12327; 4.6 kcal/gm, 40% sucrose and 40% vegetable fat). Rats under these conditions typically consume approximately 30 g/day of the high-sucrose/high-fat chow and 2 g/day of the normal Harlan Teklad rat chow.
DIO rats were sorted into treatment groups based on body weight, total kilocalories consumed, and body composition (via echo MRI). […] Body weight and the weight of both diets were determined daily. Respiratory quotient data were obtained on days 2 and 15 of the study, echo MRI was obtained on day 22, and blood was collected for a fasting clinical chemistry tests on day 27.
Percent weight changes were calculated as daily weight—day 0 weight×100.
Where [7] appears, read: metformin XR 750 mg titrated to 1500 mgs, 12 weeks, n = 56.
Setting [8] is: 2.5 mgs once daily, 12 weeks, n = 59.
Where [9] appears, read: 5 mgs once daily, 12 weeks, n = 58.
Where [10] appears, read: 10 mgs once daily, 12 weeks, n = 47.
Setting [11] is: 20 mgs once daily, 12 weeks, n = 59.
Setting [12] is: 50 mgs once daily, 12 weeks, n = 56.

Regarding `CCOC(=O)OC[C@H]1O[C@@H](Oc2ccccc2Cc2ccc(OC)cc2)[C@H](O)[C@@H](O)[C@@H]1O` [GSK 869,682], the “amount of glucose excretion/day” value is recorded as “approximately 5 g” in assay [1] (50 mg), around 6 g in assay [1] (100 mg), around 12 g in assay [1] (200 mg) and around 16 g in assay [1] (500 mg).

In the case of `CN(C)C(=N)N=C(N)N` [Metformin, metformin, reference compound], in assay [2] (setting [7]), the “Mean reduction in BMI” value was −0.5 and the “Mean reduction in weight (%)” value is −1.7%. Moreover, the “mean glucosuria at week 12” value in assay [2] (type II diabetes patients, metformin XR 750 mg titrated to 1500 mgs, week 12) was 5.6 grams/day.

In the case of `CCOc1ccc(Cc2cc([C@@H]3O[C@H](CO)[C@@H](O)[C@H](O)[C@H]3O)ccc2Cl)cc1.C[C@H](O)CO.O` [dapagliflozin propylene glycol hydrate], the “Mean reduction in weight (%)” value is given as −2.7% in assay [2] (setting [8]); −2.5% in assay [2] (setting [9]); −2.7% in assay [2] (setting [10]); −3.4% in assay [2] (setting [11]); −3.4% in assay [2] (setting [12]). The “Mean reduction in BMI” value in assay [2] (setting [8]) is −0.9; in assay [2] (setting [9]), −0.8; in assay [2] (setting [10]), −0.8; in assay [2] (setting [11]) it was −1.0; in assay [2] (setting [12]), −1.1. In assay [2] (each dose group (2.5, 5, 10, 20, 50 mgs), 12 weeks), the “proportion of patients who achieved a 5% weight reduction, versus placebo” value is recorded as “higher proportion”. In addition, the “24-hour urine glucose excretion compared to placebo” value in assay [3] (5 mg), in assay [3] (25 mg) and in assay [3] (100 mg) was “significantly higher” throughout. Moreover, the “amount of glucose excretion/day” value is recorded as “approximately 30 g” in assay [4] (5 mg), around 55 g in assay [4] (20 mg), around 60 g in assay [4] (50 mg) and around 70 g in assay [4] (100 mg). Also, the “total amount of glucose lost in urine over 24 hours post dose” value in assay [5] is “significantly increased with increasing doses”. For the same molecule, the “body weight loss versus vehicle” value in assay [6] (oral 0.5, 1 or 5 mpk, administered daily over 25 days, p<0.05 versus vehicle) is recorded as “significant weight loss”. Further, in assay [6] (pair fed subgroup, compared with ad libitum treated rats), the “body weight loss when compound-induced overeating was prevented (pair fed to vehicle group)” value is recorded as “the weight loss was greater”.

Source of the values: US9198925B2, “Pharmaceutical formulations containing an SGLT2 inhibitor” (AstraZeneca AB, priority 2007, dated 2015).
